Key:
[1] = target: T1, recombinant human enzyme CK-1δ (Homo sapiens, UniProt P48730); assay: Enzyme inhibition assay, Luminometer Kinase-GLO method, CK-1δ; type: biochemical; details: for IC50: casein substrate, 4 μM ATP, 60 minutes at 30° C., read-out: Inhibitory Concentration 50 (IC50) CK-1δ
T1 construct: purchased Millipore Iberica SAU
Procedure: (§1) Enzyme inhibition assays were performed using the Luminometer Kinase-GLO® method. Recombinant human enzyme CK-1δ was purchased from Millipore Iberica SAU and recombinant human enzyme CK-1ε was purchased from Invitrogen. The phosphorylation substration chosen was casein. The Luminescent Kinase Kit (catalogue no. V6711) was obtained from Promega. ATP and other reagents were purchased from Sigma-Aldrich (St. Louis, Mo.).
(§2) The assays were conducted in buffer using 96-well plates. In a typical assay: 10 μL of the test compound (dissolved in dimethylsulfoxide at a concentration of 1 mM and, in turn, dissolved in buffer to the required concentration for the experiment) and 10 μL (16 ng) of the CK-1δ enzyme or 10 μL (50 ng) of the CK-1ε enzyme row were added to each well followed by 20 μL of buffer containing 0.1% casein as substrate and 4 μM of ATP. The assay buffer contained: 50 mM HEPES, pH 7.5; 0.01% Brij-35; 10 mM MgCl2; 1 mM EGTA and 0.01% NaN3. […] After incubating for 60 minutes at 30° C., the enzymatic reaction was stopped using 40 μL of Kinase-GLO® reagent. Luminescence was measured after ten minutes using a FLUOstar Optima (BMG Labtechnologies GmbH, Offenburg, Germany) multimode reader. The activity was proportional to the difference between the total and consumed ATP. Inhibition activities were calculated in accordance with the maximum activity measured in the absence of inhibitor. IC50 is defined as the concentration of each compound that reduces enzyme activity by 50% with respect to that obtained without inhibitor.

[2] = target: T2, recombinant human enzyme CK-1ε (Homo sapiens, UniProt P49674); assay: Enzyme inhibition assay, Luminometer Kinase-GLO method, CK-1ε; type: biochemical; details: for IC50: casein substrate, 4 μM ATP, 60 minutes at 30° C., read-out: Inhibitory Concentration 50 (IC50) CK-1ε
T2 construct: purchased Invitrogen
T2 sequence (P49674 whole entry): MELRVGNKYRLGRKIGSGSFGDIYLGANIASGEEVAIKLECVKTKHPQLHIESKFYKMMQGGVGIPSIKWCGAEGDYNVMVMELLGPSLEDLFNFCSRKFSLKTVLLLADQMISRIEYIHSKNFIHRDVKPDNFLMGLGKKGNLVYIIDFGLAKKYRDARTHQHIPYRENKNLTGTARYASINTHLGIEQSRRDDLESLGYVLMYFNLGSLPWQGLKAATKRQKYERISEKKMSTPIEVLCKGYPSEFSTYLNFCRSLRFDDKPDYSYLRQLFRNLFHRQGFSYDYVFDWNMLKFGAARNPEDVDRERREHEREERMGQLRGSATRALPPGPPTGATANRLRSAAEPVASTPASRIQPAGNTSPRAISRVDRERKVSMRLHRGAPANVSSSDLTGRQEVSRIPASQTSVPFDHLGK
Procedure: as §1, §2

T1 sequence (P48730 whole entry): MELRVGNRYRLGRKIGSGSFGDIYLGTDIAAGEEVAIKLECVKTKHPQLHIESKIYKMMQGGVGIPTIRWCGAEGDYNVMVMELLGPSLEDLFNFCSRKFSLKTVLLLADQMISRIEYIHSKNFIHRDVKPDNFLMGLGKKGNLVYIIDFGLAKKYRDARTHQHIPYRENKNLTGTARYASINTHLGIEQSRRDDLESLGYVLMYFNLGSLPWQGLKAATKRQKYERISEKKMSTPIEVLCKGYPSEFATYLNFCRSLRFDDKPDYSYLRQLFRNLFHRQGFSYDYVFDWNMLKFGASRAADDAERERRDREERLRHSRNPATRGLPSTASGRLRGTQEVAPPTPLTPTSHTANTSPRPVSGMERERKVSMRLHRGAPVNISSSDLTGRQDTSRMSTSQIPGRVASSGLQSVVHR

Row | IC50 [1] [nM] | IC50 [2] [µM] | inhibition at 10 µM [2] [%] | inhibition at 10 µM [1] [%] | Structure (SMILES)
1 | 70 | 0.5 |  |  | COc1ccc(CC(=O)Nc2nc3ccc(Cl)cc3s2)cc1 [Compound 2, N-(6-chlorobenzothiazole-2-yl)-2-(4-methoxyphenyl)acetamide]
2 | 68 | 7.73 |  |  | O=C(Cc1ccccc1Cl)Nc1nc2ccc(C(F)(F)F)cc2s1 [Compound 7, N-(6-trifluoromethylbenzothiazole-2-yl)-2-(2-chlorophenyl)acetamide]
3 | 56 | 0.87 |  |  | O=C(Cc1ccc(Cl)c(Cl)c1)Nc1nc2ccc(C(F)(F)F)cc2s1 [Compound 9, N-(6-trifluoromethylbenzothiazole-2-yl)-2-(3,4-dichlorophenyl)acetamide]
4 | 79 | 0.94 |  |  | COc1cc(CC(=O)Nc2nc3ccc(OC(F)(F)F)cc3s2)cc(OC)c1OC [Compound 11, N-(6-trifluoromethoxybenzothiazole-2-yl)-2-(3,4,5-trimethoxyphenyl)acetamide]
5 | 87 | 0.72 |  |  | O=C(Cc1cccc(C(F)(F)F)c1)Nc1nc2ccc(C(F)(F)F)cc2s1 [Compound 13, N-(6-trifluoromethylbenzothiazole-2-yl)-2-(3-(trifluoromethyl)phenyl)acetamide]
6 | 260 | 2.75 |  |  | O=C(Nc1nc2ccc(C(F)(F)F)cc2s1)C(c1ccccc1)c1ccccc1 [Compound 15, N-(6-trifluoromethylbenzothiazole-2-yl)-2,2-diphenylacetamide]
7 | 840 | 5.07 |  |  | COc1ccc2nc(NC(=O)C(c3ccccc3)c3ccccc3)sc2c1 [Compound 16, N-(6-methoxybenzothiazole-2-yl)-2,2-diphenylacetamide]
8 | 570 | 9.4 |  |  | O=C(CCc1ccccc1)Nc1nc2ccc([N+](=O)[O-])cc2s1 [Compound 17, N-(6-nitrobenzothiazole-2-yl)-3-phenylpropanamide]
9 | 530 | 3.08 |  |  | O=C(Cc1ccc(F)cc1)Nc1nc2ccccc2s1 [Compound 18, N-(benzothiazole-2-yl)-2-(4-fluorophenyl)acetamide]
10 | 570 | 2.41 |  |  | COc1ccc(CC(=O)Nc2nc3ccc(OC)cc3s2)cc1 [Compound 19, N-(6-methoxybenzothiazole-2-yl)-2-(4-methoxyphenyl)acetamide]
11 | 750 | 8.75 |  |  | COc1ccc2nc(NC(=O)Cc3ccc(Cl)cc3)sc2c1 [Compound 21, N-(6-methoxybenzothiazole-2-yl)-2-(4-chlorophenyl)acetamide]
12 | 530 | 3.73 |  |  | COc1ccc2nc(NC(=O)Cc3cccc(Cl)c3)sc2c1 [Compound 22, N-(6-methoxybenzothiazole-2-yl)-2-(3-chlorophenyl)acetamide]
13 | 540 | 1.02 |  |  | O=C(Cc1cccc(Cl)c1)Nc1nc2ccc(OC(F)(F)F)cc2s1 [Compound 23, N-(6-trifluoromethoxybenzothiazole-2-yl)-2-(3-chlorophenyl)acetamide]
14 | 740 | 11 |  |  | O=C(Nc1cccc(Cl)c1)Nc1nc2ccc(C(F)(F)F)cc2s1 [Compound 24, N-(6-trifluoromethylbenzothiazole-2-yl)-N′-(3-chlorophenyl)urea]
15 | 420 | 2.43 |  |  | COc1cccc(CC(=O)Nc2nc3ccc(OC)cc3s2)c1 [Compound 25, N-(6-methoxybenzothiazole-2-yl)-2-(3-methoxyphenyl)acetamide]
16 | 990 | 8.97 |  |  | CCOc1ccc2nc(NC(=O)Cc3cccc(OC)c3)sc2c1 [Compound 26, N-(6-ethoxybenzothiazole-2-yl)-2-(3-methoxyphenyl)acetamide]
17 | 620 | 7.39 |  |  | COc1ccccc1CC(=O)Nc1nc2ccc(OC(F)(F)F)cc2s1 [Compound 27, N-(6-trifluoromethoxybenzothiazole-2-yl)-2-(2-methoxyphenyl)acetamide]
18 | 590 | 0.93 |  |  | O=C(Cc1ccc(Cl)c(Cl)c1)Nc1nc2ccc(OC(F)(F)F)cc2s1 [Compound 28, N-(6-trifluoromethoxybenzothiazole-2-yl)-2-(3,4-dichlorophenyl)acetamide]
19 | 190 | 3.14 |  |  | COc1ccc(OC)c(CC(=O)Nc2nc3ccc(C(F)(F)F)cc3s2)c1 [Compound 29, N-(6-trifluoromethylbenzothiazole-2-yl)-2-(2,5-dimethoxyphenyl)acetamide]
20 | 320 | 1.15 |  |  | COc1ccccc1CC(=O)Nc1nc2ccc(Cl)cc2s1 [Compound 31, N-(6-chlorobenzothiazole-2-yl)-2-(2-methoxyphenyl)acetamide]

Row | IC50 [1] [nM] | IC50 [2] [µM] | inhibition at 10 µM [2] [%] | inhibition at 10 µM [1] [%] | Structure (SMILES)
21 | 260 | 1.03 |  |  | COc1ccccc1CC(=O)Nc1nc2ccc(Br)cc2s1 [Compound 32, N-(6-bromobenzothiazole-2-yl)-2-(2-methoxyphenyl)acetamide]
22 | 1960 | 7.31 |  |  | O=C(Nc1nc2ccccc2s1)C(c1ccccc1)c1ccccc1 [Compound 33, N-(benzothiazole-2-yl)-2,2-diphenylacetamide]
23 | 2500 | 9.73 |  |  | O=C(CC(c1ccccc1)c1ccccc1)Nc1nc2ccccc2s1 [Compound 34, N-(benzothiazole-2-yl)-3,3-diphenylpropanamide]
24 | 4370 |  | 48 |  | O=C(COCc1ccccc1)Nc1nc2ccccc2s1 [Compound 35, N-(benzothiazole-2-yl)-2-benzyloxyacetamide]
25 | 7290 |  | 48 |  | O=C(CNC(=O)c1ccccc1)Nc1nc2ccccc2s1 [Compound 36, N-[2-(benzothiazole-2-ylamine)-2-oxoethyl]benzamide]
26 | 1930 | 13 |  |  | O=C(CNC(=O)C(c1ccccc1)c1ccccc1)Nc1nc2ccccc2s1 [Compound 37, N-(benzothiazole-2-yl)-2-(2,2-diphenylacetamide)acetamide]
27 | 6330 |  | 37 |  | O=C(Cc1ccccc1)NCC(=O)Nc1nc2ccccc2s1 [Compound 38, N-(benzothiazole-2-yl)-2-(2-phenylacetamide)acetamide]
28 | 2820 | 7.86 |  |  | CCOc1ccc2nc(NC(=O)C(c3ccccc3)c3ccccc3)sc2c1 [Compound 39, N-(6-ethoxybenzothiazole-2-yl)-2,2-diphenylacetamide]
29 | 6680 | 1.6 |  |  | CCOC(=O)c1ccc2nc(NC(=O)C(c3ccccc3)c3ccccc3)sc2c1 [Compound 40, Carboxylate[2-(2,2-diphenylacetamide)benzothiazole-6-yl]ethyl]
30 |  |  | 10 | 10 | NS(=O)(=O)c1ccc2nc(NC(=O)C(c3ccccc3)c3ccccc3)sc2c1 [Compound 41, N-(6-sulfamoylbenzothiazole-2-yl)-2,2-diphenylacetamide]
31 |  |  | 10 | 10 | CCNS(=O)(=O)c1ccc2nc(NC(=O)C(c3ccccc3)c3ccccc3)sc2c1 [Compound 42, N-(6-(N-ethylsulfamoyl)benzothiazole-2-yl)-2,2-diphenylacetamide]
32 |  |  | 10 | 10 | CCCCNS(=O)(=O)c1ccc2nc(NC(=O)C(c3ccccc3)c3ccccc3)sc2c1 [Compound 43, N-(6-(N-butylsulfamoyl)benzothiazole-2-yl)-2,2-diphenylacetamide]
33 | 9830 | 3.47 |  |  | CCN(CC)S(=O)(=O)c1ccc2nc(NC(=O)C(c3ccccc3)c3ccccc3)sc2c1 [Compound 44, N-(6-(N,N-diethylsulfamoyl)benzothiazole-2-yl)-2,2-diphenylacetamide]
34 | 1090 | 9.49 |  |  | CCOc1ccc2nc(NC(=O)Cc3ccc(OC)cc3)sc2c1 [Compound 45, N-(6-ethoxybenzothiazole-2-yl)-2-(4-methoxyphenyl)acetamide]
35 | 5500 |  | 29 |  | COc1ccc(NC(=O)Nc2nc3ccc(C(F)(F)F)cc3s2)cc1 [Compound 46, N-(6-trifluoromethylbenzothiazole-2-yl)-N′-(4-methoxyphenyl)urea]
36 | 3580 |  | 31 |  | O=C(CCc1cccc(Cl)c1)Nc1nc2ccccc2s1 [Compound 47, N-(benzothiazole-2-yl)-3-(3-chlorophenyl)propanamide]
37 | 1210 | 9.75 |  |  | CCOc1ccc2nc(NC(=O)Cc3cccc(Cl)c3)sc2c1 [Compound 48, N-(6-ethoxybenzothiazole-2-yl)-2-(3-chlorophenyl)acetamide]
38 | 9710 |  | 30 |  | COc1ccc2nc(NC(=O)Cc3ccccc3Cl)sc2c1 [Compound 49, N-(6-methoxybenzothiazole-2-yl)-2-(2-chlorophenyl)acetamide]
39 | 17400 |  | 20 |  | CCOc1ccc2nc(NC(=O)Cc3ccccc3Cl)sc2c1 [Compound 50, N-(6-ethoxybenzothiazole-2-yl)-2-(2-chlorophenyl)acetamide]

From patent US9592224B2, “Substituted benzothiazoles and therapeutic uses thereof for the treatment of human diseases” (CONSEJO SUPERIOR DE INVESTIGACIONES CIENTÍFICAS, priority 2013, dated 2017)
